Assay results from patent US20030129678A1, “Methods, pharmaceutical formulations and kits for identification of subjects at risk for cancer” (priority 1999, published 2003).
One block for each compound: values may come before it.

Legend:
[1] = test system: normal murine bone marrow cells; details: cited from earlier work
[2] = test system: LNCaP prostate carcinoma cells; details: cited from earlier work
Nb2 lymphoma = details: cited from earlier work
K-562 leukemia = details: cited from earlier work
TNF-α = assay: Functional experiments: TNF-α release from macrophages (ELISA); format: cell-based, mouse
Description: Macrophages are then challenged with 1 μM PMA in the above medium for 2 hours and then stimulated with different concentrations of (0-1 μM) of 2-chloro-N^6-cyclopentyl adenosine (CCPA) at 37° C. for 1-6 hours. The supernatant is collected and the TNF-α levels are estimated by commercially available ELISA kits (R & D Systems, Minneapolis, Minn.).

[3] = test system: mouse P815 mastocytoma tumor cells; assay: In vitro cytotoxicity (51Cr release), primed and activated mouse macrophages against P815 cells; details: mouse macrophages (IC-21); priming with PMA (1 μM), activation with CCPA (1 μM)
Description: (§1) B-16 melanoma cells are washed with serum free RPMI medium by centrifugation. 25-30 μCi of Na ^51Cr is diluted to 1 ml of RPMI and transferred to the melanoma cells suspension. The melanoma cells are incubated with Na ^51Cr at 37° C. for 1 hour. The unincorporated radioactivity is removed by centrifugation at 1000×g for 10 minutes. The melanoma cells are allowed to leak for 2 hours and then washed again. The final suspension is diluted in RPMI. The cell number is counted in a hemocytometer.
(§2) Macrophages are washed with medium containing 100 mM MgCl2, 2 U/ml adenosine deaminase and 10% fetal bovine serum. Macrophages are then challenged with 1 μM PMA in the above medium for 2 hours and then stimulated with different concentrations of (0-1 μM) of 2-chloro-N^6-cyclopentyl adenosine (CCPA) for 30 minutes. The macrophages are then incubated with ^51Cr-labelled B-16 melanoma cells at a ratio of 20:1. Six hours later, a fraction of the supernatant is aspirated and counted in a gamma counter.
(§3) Total releasable counts are measured by lysing the melanoma cells in hypotonic medium.
(§4) The results are expressed as percentage (%) ^51Cr release as follows: [formula]
This same protocol is repeated, except that P815 mouse mastocytoma tumor cells are used instead of the B-16 melanoma cells.

[4] = test system: A375 human melanoma tumor cells; assay: In vitro cytotoxicity (51Cr release), primed and activated human macrophages against A375 cells; details: human macrophages (SC hematopoietic cell line and a healthy volunteer); priming with PMA (1 μm), activation with CCPA (1 μm)
Description: as §1, §2, §3, §4

[5] = test system: mouse B-16 melanoma cells; assay: In vitro cytotoxicity (51Cr release), primed and activated mouse macrophages against B-16 melanoma cells; details: priming with PMA (1 μm), activation with CCPA (lam)
Description: as §1, §2, §3, §4
Percentage ^51 Cr release is a measure of the lysing of cells (i.e., killing of cells), and is therefore an indicia of cytotoxicity.

[6] = target: T1, A1 adenosine receptor expression (Homo sapiens, UniProt P30542); assay: Saturation binding in human macrophages (SC) after cisplatin treatment; format: cell-based; details: human macrophages (SC, ATCC); cisplatin 2.5 μM for 24 hours
T1 construct: This same protocol is repeated using membranes from human macrophages (SC cells)
T1 sequence (P30542 1-326): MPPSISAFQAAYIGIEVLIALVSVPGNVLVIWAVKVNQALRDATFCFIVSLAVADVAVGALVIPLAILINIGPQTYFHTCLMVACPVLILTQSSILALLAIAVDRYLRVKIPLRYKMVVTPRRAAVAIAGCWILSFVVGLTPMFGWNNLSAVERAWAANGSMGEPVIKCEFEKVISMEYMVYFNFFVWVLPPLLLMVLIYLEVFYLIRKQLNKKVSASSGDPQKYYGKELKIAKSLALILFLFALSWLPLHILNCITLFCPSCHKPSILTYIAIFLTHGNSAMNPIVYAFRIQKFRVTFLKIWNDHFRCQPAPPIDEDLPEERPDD
Description: Incubation of the macrophage fractions with the A1 adenosine receptor ligand ^125I-BWA844U (see Patel et al., J. Pharmacol. Exp. Ther. 33:585 (1988) in concentrations ranging from 1.25-20 nM was carried out at 37° C. for 1 hour. Non-specific binding is determined in the presence of 1 mM theophylline. Following incubation, membrane bound radioactivity is separated by filtration over a cell harvester and counted in a gamma counter. The data is analyzed by non-linear regression using GraphPad Prism software. Thc Bmax and kd values are calculated from the analyzed data.
This same protocol is repeated using membranes from human macrophages (SC cells).

A1 adenosine receptors = target: T2, A1 adenosine receptors (Mus musculus, UniProt Q60612); assay: Competition experiments  against 125I-BWA844U in macrophage membranes; format: binding
T2 sequence (Q60612 1-326): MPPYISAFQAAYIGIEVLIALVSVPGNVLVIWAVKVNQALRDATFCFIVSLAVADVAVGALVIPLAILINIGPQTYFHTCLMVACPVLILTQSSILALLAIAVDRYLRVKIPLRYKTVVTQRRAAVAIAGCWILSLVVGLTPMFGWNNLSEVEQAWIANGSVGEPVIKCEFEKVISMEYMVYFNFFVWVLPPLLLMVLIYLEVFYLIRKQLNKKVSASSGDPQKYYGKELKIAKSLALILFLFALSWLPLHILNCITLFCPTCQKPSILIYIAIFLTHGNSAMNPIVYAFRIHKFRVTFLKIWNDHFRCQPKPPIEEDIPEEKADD
Description: Non-specific binding is determined in presence of 1 mM theophylline. Membrane bound radioactivity is separated by filtration over a cell harvester. The data is analyzed by non-linear regression analysis using GraphPad prism software and the Ki value is calculated.

Compound: Nc1ncnc2c1ncn2[C@@H]1O[C@H](CO)[C@@H](O)[C@H]1O [adenosine]
proliferation [1]: stimulating proliferation
tumor cell growth [2]: inhibits tumor cell growth
tumor cell growth (Nb2 lymphoma): inhibits tumor cell growth
tumor cell growth (K-562 leukemia): inhibits tumor cell growth

Compound: OC[C@H]1O[C@@H](n2cnc3c(NC4CCCC4)nc(Cl)nc32)[C@H](O)[C@@H]1O [CCPA, 2-chloro-N^6-cyclopentyladenosine]
TNF-α release in WBC264-9C macrophages compared with IC-21 macrophages (TNF-α; priming with PMA 1 μM, activation with CCPA 0-1 μM, 1-6 hours): lower
cytotoxicity for mouse P815 mastocytoma tumor cells [3]: cytotoxic
cytotoxicity to A375 human melanoma tumor cells [4]: cytotoxic
cytotoxicity of mouse B-16 melanoma cells ([5]; macrophages from LPS-resistant mice (WBC264-9C, ATCC)): 20%
cytotoxicity of mouse B-16 melanoma cells ([5]; macrophages from LPS-sensitive mice (IC-21, ATCC)): 50%

Compound: N.N.[Cl][Pt][Cl] [cisplatin]
effect of pretreatment on TNF-α release from WBC264-9C macrophages (TNF-α; cisplatin 2.5 μM for 24 hours, then PMA and CCPA): increases TNF-α release
increase of A1 adenosine receptor expression (Bmax) [6]: approximately three-fold
effect of pretreatment on affinity of WBC264-9C macrophage membranes for MCP-1 (A1 adenosine receptors; cisplatin 2.5 μM for 24 hours): increases the affinity

affinity (Ki) in membranes from WBC264-9C macrophages compared with IC-21 macrophages (A1 adenosine receptors; competition with 0.1-0.2 nM 125I-BWA844U): lower
Compound: MCP-1: human recombinant monocyte chemotactic protein, chemoattractive for monocytes
